PubChem BioAssay AID248 (DTP/NCI, 2004)
Where “and” joins values, the source holds several entries; their conditions need not be identical. Equal entries are not always repeated. Inconclusive results and toxic doses are left out. Cut-off read from the data, not from the text of the source: active = T/C of 150% or more; inactive = T/C below 125%.

Test system: L1210 leukemia ip in BDF1 mice, survival T/C
Assay: NCI In Vivo Anticancer Drug Screen. Data for tumor model L1210 Leukemia (intraperitoneal) in B6D2F1 (BDF1) mice
Settings: endpoint: mean survival time, higher = longer survival
Method in brief: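 Antitumor effect is assessed in tumor-bearing animals. Survival in the compound arm is compared with a vehicle-dosed control arm and expressed as their quotient.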

[1] = dose: 25.0 mg/kg/injection, schedule: Q01DX001 (ip), vehicle: Klucel (hydroxypropylcellulose) (HPC)
[2] = dose: 50.0 mg/kg/injection, schedule: Q01DX001 (ip), vehicle: Klucel (hydroxypropylcellulose) (HPC)
[3] = dose: 100.0 mg/kg/injection, schedule: Q01DX001 (ip), vehicle: Klucel (hydroxypropylcellulose) (HPC)
[4] = dose: 100.0 mg/kg/injection, schedule: Q01DX009 (ip), vehicle: Klucel (hydroxypropylcellulose) (HPC)
[5] = dose: 100.0 mg/kg/injection, schedule: Q04DX003 (ip), vehicle: Klucel (hydroxypropylcellulose) (HPC)
[6] = dose: 200.0 mg/kg/injection, schedule: Q01DX009 (ip), vehicle: Klucel (hydroxypropylcellulose) (HPC)
[7] = dose: 200.0 mg/kg/injection, schedule: Q04DX003 (ip), vehicle: Klucel (hydroxypropylcellulose) (HPC)
[8] = dose: 400.0 mg/kg/injection, schedule: Q04DX003 (ip), vehicle: Klucel (hydroxypropylcellulose) (HPC)
[9] = dose: 50.0 mg/kg/injection, schedule: Q01DX009 (ip), vehicle: saline with Tween-80
[10] = dose: 100.0 mg/kg/injection, schedule: Q01DX009 (ip), vehicle: saline with Tween-80
[11] = dose: 100.0 mg/kg/injection, schedule: Q01DX001 (ip), vehicle: saline
[12] = dose: 200.0 mg/kg/injection, schedule: Q01DX001 (ip), vehicle: saline
[13] = dose: 400.0 mg/kg/injection, schedule: Q01DX001 (ip), vehicle: saline
[14] = dose: 100.0 mg/kg/injection, schedule: Q04DX003 (ip), vehicle: saline with Tween-80
[15] = dose: 200.0 mg/kg/injection, schedule: Q04DX003 (ip), vehicle: saline with Tween-80
[16] = dose: 400.0 mg/kg/injection, schedule: Q04DX003 (ip), vehicle: saline with Tween-80
[17] = dose: 100.0 mg/kg/injection, schedule: Q04DX003 (ip), vehicle: saline
[18] = dose: 200.0 mg/kg/injection, schedule: Q04DX003 (ip), vehicle: saline
[19] = dose: 400.0 mg/kg/injection, schedule: Q04DX003 (ip), vehicle: saline
[20] = dose: 50.0 mg/kg/injection, schedule: Q01DX009 (ip), vehicle: saline
[21] = dose: 100.0 mg/kg/injection, schedule: Q01DX009 (ip), vehicle: saline
[22] = dose: 200.0 mg/kg/injection, schedule: Q01DX009 (ip), vehicle: saline
[23] = dose: 400.0 mg/kg/injection, schedule: Q01DX009 (ip), vehicle: saline

Measured: T/C

COc1ccc(C[n+]2cc([O-])on2)cc1
inactive: dose: 12.5 mg/kg/injection, schedule: Q01DX001 (ip), vehicle: Klucel (hydroxypropylcellulose) (HPC) 101 % of control | dose: 12.5 mg/kg/injection, schedule: Q04DX003 (ip), vehicle: Klucel (hydroxypropylcellulose) (HPC) 104 % of control | [1] 99 % of control | dose: 25.0 mg/kg/injection, schedule: Q04DX003 (ip), vehicle: Klucel (hydroxypropylcellulose) (HPC) 104 % of control | dose: 28.75 mg/kg/injection, schedule: Q01DX009 (ip), vehicle: Klucel (hydroxypropylcellulose) (HPC) 114 % of control | [2] 99 % of control | dose: 50.0 mg/kg/injection, schedule: Q04DX003 (ip), vehicle: Klucel (hydroxypropylcellulose) (HPC) 104 % of control | dose: 57.5 mg/kg/injection, schedule: Q01DX009 (ip), vehicle: Klucel (hydroxypropylcellulose) (HPC) 103 % of control | dose: 75.0 mg/kg/injection, schedule: Q04DX003 (ip), vehicle: other 106 % of control | [3] 102 % of control | dose: 115.0 mg/kg/injection, schedule: Q01DX009 (ip), vehicle: Klucel (hydroxypropylcellulose) (HPC) 120 % of control | dose: 115.0 mg/kg/injection, schedule: Q04DX003 (ip), vehicle: other 87 % of control | dose: 400.0 mg/kg/injection, schedule: Q01DX001 (ip), vehicle: Klucel (hydroxypropylcellulose) (HPC) 108 % of control

OC1CCC(c2ccccc2)C1 (stereo unspecified)
inactive: dose: 75.0 mg/kg/injection, schedule: Q01DX001 (ip), vehicle: other 98 % of control | dose: 150.0 mg/kg/injection, schedule: Q01DX001 (ip), vehicle: other 97 % of control | dose: 300.0 mg/kg/injection, schedule: Q01DX001 (ip), vehicle: other 106 % of control

CCCCC(CC)CCC(=O)CC(C)C (stereo unspecified)
inactive: [4] 91 % of control | [5] 108 % of control | [6] 102 % of control | [7] 98 % of control | [8] 98 % of control

O=C(O)C(Nc1ccc(Cc2ccc(NC(C(=O)O)c3ccccc3)cc2)cc1)c1ccccc1 (stereo unspecified)
inactive: dose: 100.0 mg/kg/injection, schedule: Q04DX002 (ip), vehicle: Klucel (hydroxypropylcellulose) (HPC) 100 % of control | dose: 200.0 mg/kg/injection, schedule: Q04DX002 (ip), vehicle: Klucel (hydroxypropylcellulose) (HPC) 103 % of control | dose: 400.0 mg/kg/injection, schedule: Q04DX002 (ip), vehicle: Klucel (hydroxypropylcellulose) (HPC) 92 % of control

O=C(CBr)CC(=O)Nc1ccccc1
inactive: dose: 25.0 mg/kg/injection, schedule: Q01DX009 (ip), vehicle: saline with Tween-80 97 % of control | [9] 91 % of control

Cc1ccc(S(=O)(=O)[N-][n+]2ccccc2)cc1
inactive: [4] 93 % of control | [6] 93 % of control

C/C(=N/N=C(N)N)C(=O)O
inactive: dose: 15.0 mg/kg/injection, schedule: Q01DX Z (ip), vehicle: carboxymethylcellulose (CMC) 101 % of control | dose: 30.0 mg/kg/injection, schedule: Q01DX Z (ip), vehicle: carboxymethylcellulose (CMC) 97 % of control | dose: 60.0 mg/kg/injection, schedule: Q01DX Z (ip), vehicle: carboxymethylcellulose (CMC) 100 % of control and 101 % of control | dose: 120.0 mg/kg/injection, schedule: Q01DX Z (ip), vehicle: carboxymethylcellulose (CMC) 101 % of control and 103 % of control | dose: 240.0 mg/kg/injection, schedule: Q01DX Z (ip), vehicle: carboxymethylcellulose (CMC) 112 % of control | dose: 480.0 mg/kg/injection, schedule: Q01DX Z (ip), vehicle: carboxymethylcellulose (CMC) 98 % of control

C(#[C][Sn]([C]#Cc1ccccc1)([C]#Cc1ccccc1)[C]#Cc1ccccc1)c1ccccc1
inactive: [9] 92 % of control | [10] 103 % of control | dose: 200.0 mg/kg/injection, schedule: Q01DX009 (ip), vehicle: saline with Tween-80 95 % of control

SCc1ccccc1
inactive: [11] 91 % of control | [12] 111 % of control | [13] 105 % of control

FC(F)(F)c1ccc(N2CCCCC2)cc1
inactive: dose: 75.0 mg/kg/injection, schedule: Q04DX002 (ip), vehicle: saline 103 % of control | dose: 150.0 mg/kg/injection, schedule: Q04DX002 (ip), vehicle: saline 95 % of control | dose: 300.0 mg/kg/injection, schedule: Q04DX002 (ip), vehicle: saline 95 % of control

C(/C=C/C=C/Nc1ccccc1)=Nc1ccccc1
inactive: [14] 100 % of control | [15] 104 % of control | [16] 92 % of control

Clc1[nH]nc2ccccc12
inactive: dose: 25.0 mg/kg/injection, schedule: Q01DX009 (ip), vehicle: saline sonified 101 % of control | dose: 50.0 mg/kg/injection, schedule: Q01DX009 (ip), vehicle: saline sonified 93 % of control | dose: 100.0 mg/kg/injection, schedule: Q01DX001 (ip), vehicle: saline sonified 91 % of control | dose: 100.0 mg/kg/injection, schedule: Q01DX009 (ip), vehicle: saline sonified 97 % of control

O=C(NNc1ccccc1)C1C2CC3OC(=O)C1C3C2 (stereo unspecified)
inactive: [17] 93 % of control | [18] 98 % of control | [19] 96 % of control

CNC(=O)OCC1=CC(=O)C=C(OC)C1=O
inactive: dose: 6.25 mg/kg/injection, schedule: Q01DX009 (ip), vehicle: gum acacia 90 % of control | dose: 12.5 mg/kg/injection, schedule: Q04DX003 (ip), vehicle: gum acacia 94 % of control | dose: 25.0 mg/kg/injection, schedule: Q04DX003 (ip), vehicle: gum acacia 101 % of control

Cc1cc(=O)[nH]n1-c1ccc(N)cc1
inactive: [5] 105 % of control | [7] 94 % of control | [8] 103 % of control

CCC(=O)OC1(c2ccccc2)CCN(C)C1C (stereo unspecified)
inactive: dose: 6.25 mg/kg/injection, schedule: Q01DX009 (ip), vehicle: saline 101 % of control | dose: 12.5 mg/kg/injection, schedule: Q01DX009 (ip), vehicle: saline 97 % of control | dose: 25.0 mg/kg/injection, schedule: Q01DX009 (ip), vehicle: saline 103 % of control | dose: 25.0 mg/kg/injection, schedule: Q04DX003 (ip), vehicle: saline 103 % of control | [20] 111 % of control | dose: 50.0 mg/kg/injection, schedule: Q04DX003 (ip), vehicle: saline 105 % of control | [21] 103 % of control | [17] 100 % of control

OC1(c2ccccc2)c2ccccc2C(O)(c2ccccc2)c2c1ccc1ccccc21 (stereo unspecified)
inactive: [10] 93 % of control | dose: 400.0 mg/kg/injection, schedule: Q01DX009 (ip), vehicle: saline with Tween-80 93 % of control

CC(C)CC/C=C/c1ccccc1
inactive: dose: 100.0 mg/kg/injection, schedule: Q04DX002 (ip), vehicle: saline with Tween-80 92 % of control | dose: 200.0 mg/kg/injection, schedule: Q04DX002 (ip), vehicle: saline with Tween-80 104 % of control | dose: 400.0 mg/kg/injection, schedule: Q04DX002 (ip), vehicle: saline with Tween-80 92 % of control

O=S(=O)(CCO)CCO
inactive: [20] 100 % of control | [21] 100 % of control and 88 % of control | [22] 96 % of control and 100 % of control | [23] 97 % of control

Nc1nc2c(ncn2-c2cccc(NS(=O)(=O)c3cccc(S(=O)(=O)F)c3)c2)c(=O)[nH]1
inactive: [1] 96 % of control | [2] 98 % of control | [3] 94 % of control

CNC(=O)C1NCCc2cc(OC)c(OC)cc21 (stereo unspecified)
inactive: [11] 97 % of control | [12] 95 % of control | [13] 91 % of control

COC(=O)c1cc(C)n(C)c(=O)c1CNC(=O)c1ccccc1
inactive: [21] 97 % of control | [17] 107 % of control | [22] 96 % of control | [18] 97 % of control | [23] 97 % of control | [19] 91 % of control

O=C1CC(N2C(=O)C3C4CCC(O4)C3C2=O)C(=O)N1 (stereo unspecified)
inactive: [14] 100 % of control | [15] 108 % of control | [16] 104 % of control
